Test [1] is described as follows: Level of premature breakage of hairs in a tensile test (Zwick tensile testing machine). The note with it: 5% by weight compound in water; 30 natural African hairs immersed 3 days at 40° C., no final rinsing; hairs 30 mm, drawn at 10 mm/minute; untreated control R = 0.27. As to the method:
The hair used for the following tests was left in a glove box at 25° C. and 45% relative humidity for about 24 hours.
A composition was prepared by mixing together 5% by weight of the compound of Example 1 and 95% by weight of water relative to the total weight of the composition.
30 natural African hairs were then treated with this composition: the hairs were immersed for 3 days at 40° C., without final rinsing, and their level of premature breakage was then compared with that of a batch of untreated natural control hairs.
Mechanical tests were performed using a Zwick tensile testing machine on the hairs 30 mm long. The hairs were drawn at a speed of 10 mm/minute.
The level of premature breakage of the treated African hair, on the one hand, and of the untreated African hair, on the other hand, was evaluated as follows: R=1—(number of hairs showing breakage under tension in the hardening zone/N) • N being the total number of hairs tested.

For test [2] the following is noted: treatment with aqueous solutions of the humectant; breakage for small elongations; cited from earlier work.

`O=C(NCCO)NCCO` [Example 1, N,N′-bis(2-hydroxyethyl)urea]: in test [1], the “Level of premature breakage R, first test” value was “R = 0.17” and the “Level of premature breakage R, second test” value is “R = 0.10”. Regarding `OCC(O)CO` [glycerol], in test [2], the “Improving the mechanical strength of Negroid hair and reducing its level of premature breakage” value was “effective”.

The values above are taken from patent publication US20060039879A1, “Use of particular polyols for preventing the hair from breaking, composition comprising them and cosmetic hair treatment process” (L'OREAL, priority 2004, published 2006).
